ChEMBL document CHEMBL4840352 (J Med Chem, 2021)
The source made the active and inactive calls. No cut-off for these calls is given here.

Key:
[1] = biological target: Glycogen synthase kinase-3 alpha (Homo sapiens) (UniProt P49840); assay: Inhibition of GSK3alpha (unknown origin) at 1000 nM relative to control
[2] = biological target: Serine/threonine-protein kinase MARK1 (Homo sapiens) (UniProt Q9P0L2); assay: Inhibition of MARK1 (unknown origin) at 1000 nM relative to control
[3] = biological target: Mitogen-activated protein kinase 1 (Homo sapiens) (UniProt P28482); assay: Inhibition of MAPK2 (unknown origin) at 1000 nM relative to control
[4] = system: Receptor-type tyrosine-protein kinase FLT3 (Homo sapiens), P36888 [UNDEFINED MUTATION]; assay: Induction of FLT3-ITD degradation in human MV4-11 cells at 20 nM pretreated with dov for 2 hrs followed compound addition for 6 hrs by Western blot analysis; assay type: cell-based
[5] = biological target: Mast/stem cell growth factor receptor Kit (Homo sapiens) (UniProt P10721); assay: Inhibition of KIT in human MOLM-13 cells assessed as reduction in PI3K phosphorylation at 5 to 25 nM after 24 hrs by Western blot analysis; assay type: cell-based; settings: dose 5-25 nM
[6] = biological target: Platelet-derived growth factor receptor alpha (Homo sapiens) (UniProt P16234); settings: dose 1000.0 nM
Description: Inhibition of PDGFRalpha (unknown origin) at 1000 nM relative to control

[7] = biological target: Receptor-type tyrosine-protein kinase FLT3 (Homo sapiens) (UniProt P36888); assay: Inhibition of FLT3 in human MV4-11 cells assessed as reduction in FLT3 phosphorylation at 15 nM by Western blot analysis; assay type: cell-based; settings: time 0-12 hrs, TDE = time-dependent effect
[8] = biological target: Tyrosine-protein kinase receptor UFO (Homo sapiens) (UniProt P30530); settings: dose 1000.0 nM
Description: Inhibition of AXL (unknown origin) at 1000 nM relative to control

[9] = biological target: Receptor-type tyrosine-protein kinase FLT3 (Homo sapiens) (UniProt P36888); settings: dose 1000.0 nM
Description: Inhibition of FLT3 (unknown origin) at 1000 nM relative to control

[10] = biological target: Mitogen-activated protein kinase 1 (Homo sapiens) (UniProt P28482); assay: Inhibition of ERK2 (unknown origin) at 1000 nM relative to control
[11] = biological target: Mast/stem cell growth factor receptor Kit (Homo sapiens) (UniProt P10721); assay: Induction of KIT degradation in human MV4-11 cells at 0 to 25 nM after 24 hrs by Western blot analysis; assay type: cell-based; settings: dose 0-25 nM
[12] = biological target: Receptor tyrosine-protein kinase erbB-2 (Homo sapiens) (UniProt P04626); assay: Inhibition of HER2 (unknown origin) at 1000 nM relative to control
[13] = biological target: Receptor tyrosine-protein kinase erbB-4 (Homo sapiens) (UniProt Q15303); settings: dose 1000.0 nM
Description: Inhibition of HER4 (unknown origin) at 1000 nM relative to control

[14] = system: Receptor-type tyrosine-protein kinase FLT3 (Homo sapiens), P36888 [UNDEFINED MUTATION]; assay: Induction of FLT3-ITD degradation in human MV4-11 cells at 20 nM pretreated with pomalidomide for 2 hrs followed compound addition for 6 hrs by Western blot analysis; assay type: cell-based
[15] = biological target: Hepatocyte growth factor receptor (Homo sapiens) (UniProt P08581); assay: Inhibition of C-MET (unknown origin) at 1000 nM relative to control
[16] = biological target: Receptor-type tyrosine-protein kinase FLT3 (Homo sapiens) (UniProt P36888); assay: Inhibition of FLT3 in human MOLM-13 cells assessed as reduction in STAT5 phosphorylation at 15 nM by Western blot analysis; assay type: cell-based; settings: time 0-12 hrs, TDE = time-dependent effect
[17] = biological target: Maternal embryonic leucine zipper kinase (Homo sapiens) (UniProt Q14680); assay: Inhibition of MELK (unknown origin) at 1000 nM relative to control
[18] = biological target: Mitogen-activated protein kinase 3 (Homo sapiens) (UniProt P27361); assay: Inhibition of ERK1 (unknown origin) at 1000 nM relative to control
[19] = Toxicity in NOD/SCID mouse xenografted with human MV4-11 cells assessed as effect on body weight at 3 mg/kg/day, iv administered for 12 hrs; assay type: organism-based; settings: in vivo
[20] = biological target: Discoidin domain-containing receptor 2 (Homo sapiens) (UniProt Q16832); assay: Inhibition of DDR2 (unknown origin) at 1000 nM relative to control
[21] = biological target: Fibroblast growth factor receptor 1 (Homo sapiens) (UniProt P11362); settings: dose 1000.0 nM
Description: Inhibition of FGFR1 (unknown origin) at 1000 nM relative to control

[22] = system: MV4-11; assay: Antitumor activity against human MV4-11 cells xenografted in NOD/SCID mouse assessed as reduction in CD45-positive cells in bone marrow at 3 mg/kg/day, iv administered for 12 days by flow cytometry analysis (reference value: 32.23 %); assay type: functional; set-up: scale not given: the % may be the effect or the level left; settings: time 12 day
[23] = biological target: Mast/stem cell growth factor receptor Kit (Homo sapiens) (UniProt P10721); assay: Induction of KIT degradation in human MOLM-13 cells at 0 to 25 nM after 24 hrs by Western blot analysis; assay type: cell-based; settings: dose 0-25 nM
[24] = biological target: Mitogen-activated protein kinase 14 (Homo sapiens) (UniProt Q16539); settings: dose 1000.0 nM
Description: Inhibition of p38alpha (unknown origin) at 1000 nM relative to control

[25] = system: MOLM-13; assay: Reduction in intracellular ROS level in human MOLM-13 cells measured after 12 hrs by DCFH-DA probe based flow cytometry; assay type: functional, cell-based; settings: dose 25-200 nM
[26] = biological target: Mast/stem cell growth factor receptor Kit (Homo sapiens) (UniProt P10721); assay: Inhibition of KIT in human MOLM-13 cells assessed as reduction in STAT3 phosphorylation at 5 to 25 nM after 24 hrs by Western blot analysis; assay type: cell-based; settings: dose 5-25 nM
[27] = biological target: Mitogen-activated protein kinase kinase kinase kinase 1 (Homo sapiens) (UniProt Q92918); assay: Inhibition of HPK1 (unknown origin) at 1000 nM relative to control
[28] = biological target: Mitogen-activated protein kinase kinase kinase 14 (Homo sapiens) (UniProt Q99558); assay: Inhibition of NIK (unknown origin) at 1000 nM relative to control
[29] = system: MOLM-13; assay: Induction of apoptosis in human MOLM-13 cells assessed as downregulation of Mcl-1 level at 15 nM measured upto 12 hrs by Western blot analysis; assay type: functional, cell-based; settings: time hrs <=12
[30] = biological target: Tyrosine-protein kinase ABL1 (Homo sapiens) (UniProt P00519); settings: dose 1000.0 nM
Description: Inhibition of ABL (unknown origin) at 1000 nM relative to control

[31] = biological target: Serine/threonine-protein kinase TBK1 (Homo sapiens) (UniProt Q9UHD2); assay: Inhibition of TBK1 (unknown origin) at 1000 nM relative to control
[32] = system: Receptor-type tyrosine-protein kinase FLT3 (Homo sapiens), P36888 [UNDEFINED MUTATION]; assay: Induction of FLT3-ITD degradation in human MV4-11 cells after 24 hrs by Western blot analysis; assay type: cell-based
[33] = biological target: Receptor-type tyrosine-protein kinase FLT3 (Homo sapiens) (UniProt P36888); assay: Inhibition of FLT3 in human MV4-11 cells assessed as reduction in STAT5 phosphorylation at 15 nM by Western blot analysis; assay type: cell-based; settings: time 0-12 hrs, TDE = time-dependent effect
[34] = system: Receptor-type tyrosine-protein kinase FLT3 (Homo sapiens), P36888 [UNDEFINED MUTATION]; assay: Induction of FLT3-ITD degradation in human MOLM-13 cells after 24 hrs by Western blot analysis; assay type: cell-based
[35] = biological target: Mitogen-activated protein kinase 8 (Homo sapiens) (UniProt P45983); assay: Inhibition of JNK1 (unknown origin) at 1000 nM relative to control
[36] = biological target: Receptor-type tyrosine-protein kinase FLT3 (Homo sapiens) (UniProt P36888); assay: Inhibition of FLT3 in human MOLM-13 cells assessed as reduction in AKT phosphorylation at 15 nM by Western blot analysis; assay type: cell-based; settings: time 0-12 hrs, TDE = time-dependent effect
[37] = biological target: Receptor-type tyrosine-protein kinase FLT3 (Homo sapiens) (UniProt P36888); assay: Inhibition of FLT3 in human MV4-11 cells assessed as reduction in AKT phosphorylation at 15 nM by Western blot analysis; assay type: cell-based; settings: time 0-12 hrs, TDE = time-dependent effect
[38] = biological target: Serine/threonine-protein kinase Chk1 (Homo sapiens) (UniProt O14757); assay: Inhibition of CHK1 (unknown origin) at 1000 nM relative to control
[39] = system: MV4-11; assay: Reduction in intracellular ROS level in human MV4-11 cells measured after 12 hrs by DCFH-DA probe based flow cytometry; assay type: functional, cell-based; settings: dose 25-200 nM

Sequence of Receptor-type tyrosine-protein kinase FLT3 (Homo sapiens), P36888 [UNDEFINED MUTATION] (P36888 whole entry, looked up, change not shown): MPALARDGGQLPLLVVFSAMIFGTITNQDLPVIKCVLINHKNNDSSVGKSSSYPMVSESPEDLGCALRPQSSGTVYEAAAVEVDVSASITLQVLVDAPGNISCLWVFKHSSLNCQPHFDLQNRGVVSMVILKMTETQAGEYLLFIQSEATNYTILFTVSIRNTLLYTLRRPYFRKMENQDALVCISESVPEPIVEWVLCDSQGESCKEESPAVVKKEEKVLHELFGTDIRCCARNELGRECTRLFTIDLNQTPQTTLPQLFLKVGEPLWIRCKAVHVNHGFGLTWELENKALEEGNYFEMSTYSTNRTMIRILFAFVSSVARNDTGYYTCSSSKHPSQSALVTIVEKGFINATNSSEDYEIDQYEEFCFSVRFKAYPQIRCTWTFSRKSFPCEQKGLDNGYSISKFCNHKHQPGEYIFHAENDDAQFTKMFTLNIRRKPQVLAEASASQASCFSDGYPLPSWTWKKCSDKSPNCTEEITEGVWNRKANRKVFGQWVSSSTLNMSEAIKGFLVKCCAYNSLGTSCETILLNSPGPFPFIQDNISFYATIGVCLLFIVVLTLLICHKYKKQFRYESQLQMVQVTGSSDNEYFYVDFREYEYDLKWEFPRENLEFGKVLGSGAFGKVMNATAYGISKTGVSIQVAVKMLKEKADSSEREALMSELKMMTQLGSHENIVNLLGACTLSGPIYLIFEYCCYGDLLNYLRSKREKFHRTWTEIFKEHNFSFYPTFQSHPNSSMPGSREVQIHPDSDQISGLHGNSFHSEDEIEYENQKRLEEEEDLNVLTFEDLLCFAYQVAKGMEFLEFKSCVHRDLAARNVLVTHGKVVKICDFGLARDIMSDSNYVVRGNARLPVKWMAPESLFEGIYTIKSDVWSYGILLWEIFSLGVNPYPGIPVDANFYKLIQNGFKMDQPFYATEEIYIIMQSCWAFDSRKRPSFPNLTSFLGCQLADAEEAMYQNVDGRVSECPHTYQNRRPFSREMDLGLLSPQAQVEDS
Sequence of Receptor-type tyrosine-protein kinase FLT3 (Homo sapiens) (P36888 whole entry): as the sequence (P36888 whole entry, looked up, change not shown) above
Sequence of Mast/stem cell growth factor receptor Kit (Homo sapiens) (P10721 whole entry): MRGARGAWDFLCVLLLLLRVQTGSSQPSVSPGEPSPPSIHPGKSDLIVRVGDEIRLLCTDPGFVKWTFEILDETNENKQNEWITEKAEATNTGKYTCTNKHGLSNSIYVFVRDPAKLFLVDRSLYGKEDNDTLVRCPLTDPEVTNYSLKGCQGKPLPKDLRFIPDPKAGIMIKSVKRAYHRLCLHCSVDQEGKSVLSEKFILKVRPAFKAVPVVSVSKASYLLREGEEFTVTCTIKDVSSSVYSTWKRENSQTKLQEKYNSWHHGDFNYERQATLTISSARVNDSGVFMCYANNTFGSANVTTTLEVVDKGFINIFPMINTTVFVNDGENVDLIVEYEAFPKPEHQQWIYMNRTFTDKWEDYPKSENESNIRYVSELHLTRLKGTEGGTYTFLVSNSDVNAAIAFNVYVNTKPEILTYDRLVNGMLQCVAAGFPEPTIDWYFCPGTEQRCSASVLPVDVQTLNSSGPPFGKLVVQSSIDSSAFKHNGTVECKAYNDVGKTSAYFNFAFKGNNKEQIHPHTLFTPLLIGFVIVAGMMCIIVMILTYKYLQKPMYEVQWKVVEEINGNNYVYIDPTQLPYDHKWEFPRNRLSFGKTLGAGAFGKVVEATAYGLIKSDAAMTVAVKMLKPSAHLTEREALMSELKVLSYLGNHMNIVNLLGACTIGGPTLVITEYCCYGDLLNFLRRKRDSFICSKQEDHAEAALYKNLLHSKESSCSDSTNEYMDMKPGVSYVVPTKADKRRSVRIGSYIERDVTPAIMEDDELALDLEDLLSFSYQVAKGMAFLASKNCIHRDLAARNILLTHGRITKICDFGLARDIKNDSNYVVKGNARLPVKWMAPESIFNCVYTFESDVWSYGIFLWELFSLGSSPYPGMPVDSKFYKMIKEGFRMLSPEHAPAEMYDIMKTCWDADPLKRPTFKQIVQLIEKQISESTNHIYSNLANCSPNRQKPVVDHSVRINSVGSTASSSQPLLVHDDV
Sequence of Mitogen-activated protein kinase 1 (Homo sapiens) (P28482 whole entry): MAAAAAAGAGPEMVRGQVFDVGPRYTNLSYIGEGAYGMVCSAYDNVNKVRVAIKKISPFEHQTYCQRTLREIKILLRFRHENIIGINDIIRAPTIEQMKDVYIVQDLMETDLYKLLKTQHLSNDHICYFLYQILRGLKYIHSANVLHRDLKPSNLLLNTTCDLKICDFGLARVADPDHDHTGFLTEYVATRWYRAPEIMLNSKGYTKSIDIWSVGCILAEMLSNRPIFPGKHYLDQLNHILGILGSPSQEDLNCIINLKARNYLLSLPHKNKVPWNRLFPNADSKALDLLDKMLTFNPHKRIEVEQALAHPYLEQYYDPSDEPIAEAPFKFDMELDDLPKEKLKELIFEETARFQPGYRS
Sequence of Discoidin domain-containing receptor 2 (Homo sapiens) (Q16832 whole entry, the tested form may be a part): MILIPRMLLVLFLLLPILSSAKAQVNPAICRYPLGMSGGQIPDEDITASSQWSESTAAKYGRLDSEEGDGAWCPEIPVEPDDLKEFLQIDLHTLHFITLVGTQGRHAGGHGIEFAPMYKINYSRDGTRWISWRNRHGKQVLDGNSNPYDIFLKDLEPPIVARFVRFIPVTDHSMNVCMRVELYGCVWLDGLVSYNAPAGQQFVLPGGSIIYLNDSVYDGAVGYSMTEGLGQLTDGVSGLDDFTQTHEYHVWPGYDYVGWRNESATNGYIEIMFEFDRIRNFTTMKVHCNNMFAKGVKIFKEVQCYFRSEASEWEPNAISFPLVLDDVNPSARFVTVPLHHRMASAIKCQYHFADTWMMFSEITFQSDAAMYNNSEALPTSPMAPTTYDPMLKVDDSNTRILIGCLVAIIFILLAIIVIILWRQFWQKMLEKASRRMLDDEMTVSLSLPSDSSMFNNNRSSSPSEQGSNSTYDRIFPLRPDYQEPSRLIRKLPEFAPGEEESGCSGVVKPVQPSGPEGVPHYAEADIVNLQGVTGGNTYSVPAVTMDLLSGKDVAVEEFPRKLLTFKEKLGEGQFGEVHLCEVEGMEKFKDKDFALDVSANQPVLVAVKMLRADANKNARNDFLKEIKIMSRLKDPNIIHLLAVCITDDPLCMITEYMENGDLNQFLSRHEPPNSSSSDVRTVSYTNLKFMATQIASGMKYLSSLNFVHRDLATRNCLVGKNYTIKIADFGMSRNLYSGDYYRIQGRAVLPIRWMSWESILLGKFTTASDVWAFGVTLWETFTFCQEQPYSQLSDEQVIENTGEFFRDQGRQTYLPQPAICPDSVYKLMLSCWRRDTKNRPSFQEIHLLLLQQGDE
Sequence of Mitogen-activated protein kinase kinase kinase kinase 1 (Homo sapiens) (Q92918 whole entry, looked up): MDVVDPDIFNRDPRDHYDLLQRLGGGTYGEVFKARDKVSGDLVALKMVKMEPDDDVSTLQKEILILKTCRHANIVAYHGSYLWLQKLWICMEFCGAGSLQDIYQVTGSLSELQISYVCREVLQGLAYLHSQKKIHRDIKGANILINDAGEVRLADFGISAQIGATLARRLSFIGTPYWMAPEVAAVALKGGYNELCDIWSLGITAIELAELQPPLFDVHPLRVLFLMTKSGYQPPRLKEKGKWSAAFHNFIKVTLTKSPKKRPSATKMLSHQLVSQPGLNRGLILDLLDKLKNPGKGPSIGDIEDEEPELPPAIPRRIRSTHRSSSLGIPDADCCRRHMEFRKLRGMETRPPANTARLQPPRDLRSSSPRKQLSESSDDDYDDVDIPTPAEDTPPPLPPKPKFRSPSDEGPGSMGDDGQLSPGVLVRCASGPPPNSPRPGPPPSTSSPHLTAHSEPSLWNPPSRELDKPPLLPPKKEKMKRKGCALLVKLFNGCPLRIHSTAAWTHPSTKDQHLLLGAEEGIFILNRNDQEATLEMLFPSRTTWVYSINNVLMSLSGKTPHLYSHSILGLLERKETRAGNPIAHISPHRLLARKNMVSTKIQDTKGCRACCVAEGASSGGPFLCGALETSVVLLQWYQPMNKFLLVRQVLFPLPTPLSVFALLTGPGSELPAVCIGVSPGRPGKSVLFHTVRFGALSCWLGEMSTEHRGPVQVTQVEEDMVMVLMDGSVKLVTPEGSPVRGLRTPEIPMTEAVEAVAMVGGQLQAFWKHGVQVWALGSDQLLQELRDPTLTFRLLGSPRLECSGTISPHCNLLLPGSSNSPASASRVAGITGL
Sequence of Mitogen-activated protein kinase 8 (Homo sapiens) (P45983 whole entry): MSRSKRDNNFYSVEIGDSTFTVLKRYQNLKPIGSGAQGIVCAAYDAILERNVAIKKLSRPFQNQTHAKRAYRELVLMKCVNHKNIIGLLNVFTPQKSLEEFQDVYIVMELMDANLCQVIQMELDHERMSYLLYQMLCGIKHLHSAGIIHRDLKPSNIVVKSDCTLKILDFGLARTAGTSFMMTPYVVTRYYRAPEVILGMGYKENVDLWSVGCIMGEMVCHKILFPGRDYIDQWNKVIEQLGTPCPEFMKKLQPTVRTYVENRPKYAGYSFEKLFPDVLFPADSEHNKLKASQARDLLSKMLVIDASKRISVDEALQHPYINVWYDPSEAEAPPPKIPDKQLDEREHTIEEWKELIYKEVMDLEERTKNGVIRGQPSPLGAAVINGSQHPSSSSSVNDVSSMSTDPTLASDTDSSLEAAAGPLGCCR
Sequence of Glycogen synthase kinase-3 alpha (Homo sapiens) (P49840 2-483 limits assumed): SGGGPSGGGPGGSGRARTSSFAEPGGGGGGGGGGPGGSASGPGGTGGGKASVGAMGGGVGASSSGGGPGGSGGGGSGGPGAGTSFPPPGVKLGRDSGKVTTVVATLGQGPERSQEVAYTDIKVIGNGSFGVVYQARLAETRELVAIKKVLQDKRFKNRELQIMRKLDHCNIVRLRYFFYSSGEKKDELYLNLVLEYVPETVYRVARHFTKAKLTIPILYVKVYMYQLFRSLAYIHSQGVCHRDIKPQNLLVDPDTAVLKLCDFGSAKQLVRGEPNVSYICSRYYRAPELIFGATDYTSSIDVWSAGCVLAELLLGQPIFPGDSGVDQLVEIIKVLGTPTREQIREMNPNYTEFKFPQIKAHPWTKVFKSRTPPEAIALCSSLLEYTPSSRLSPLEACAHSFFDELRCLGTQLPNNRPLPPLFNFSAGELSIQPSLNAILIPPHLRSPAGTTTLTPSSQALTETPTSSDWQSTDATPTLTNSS

Question: With `Nc1c(-c2nc3cc(N4CCN(C(=O)CCCCCNc5cccc6c5C(=O)N(C5CCC(=O)NC5=O)C6=O)CC4)ccc3[nH]2)c(=O)[nH]c2cccc(F)c12` (centres undefined) as the compound, how does the inhibition [1] read?
Answer: Its inhibition is 3%.

Question: What about the inhibition [2] of the same compound?
Answer: Its inhibition is 17%.

Question: And the inhibition [3]?
Answer: Its inhibition is 54%.

Question: And the Activity [4]?
Answer: Its Activity is “inactive”.

Question: What about the inhibition [5] of the same compound?
Answer: The inhibition was “Active”.

Question: What about the inhibition [6] of the same compound?
Answer: The inhibition was 82%.

Question: And the inhibition [7]?
Answer: Its inhibition is “Tde”.

Question: And the inhibition [8]?
Answer: The inhibition was 20%.

Question: What about the inhibition [9] of the same compound?
Answer: Its inhibition is 93%.

Question: And the inhibition [10]?
Answer: The inhibition was 38%.

Question: What about the Activity [11] of the same compound?
Answer: The Activity was “Active”.

Question: What about the inhibition [12] of the same compound?
Answer: The inhibition was 50%.

Question: And the inhibition [13]?
Answer: Its inhibition is 14%.

Question: And the Activity [14]?
Answer: The Activity was “inactive”.

Question: What about the inhibition [15] of the same compound?
Answer: Its inhibition is 15%.

Question: What about the inhibition [16] of the same compound?
Answer: The inhibition was “Tde”.

Question: And the inhibition [17]?
Answer: The inhibition was 11%.

Question: What about the inhibition [18] of the same compound?
Answer: Its inhibition is 4%.

Question: And the Activity [19]?
Answer: The Activity was “Non-Toxic”.

Question: And the inhibition [20]?
Answer: The inhibition was 17%.

Question: And the inhibition [21]?
Answer: Its inhibition is 17%.

Question: And the Activity [22]?
Answer: Its Activity is 5.19%.

Question: What about the Activity [23] of the same compound?
Answer: Its Activity is “Active”.

Question: And the inhibition [24]?
Answer: The inhibition was 12%.

Question: And the Activity [25]?
Answer: The Activity was “Dose-Dependent Effect”.

Question: What about the inhibition [26] of the same compound?
Answer: Its inhibition is “Active”.

Question: And the inhibition [27]?
Answer: The inhibition was 49%.

Question: And the inhibition [28]?
Answer: Its inhibition is 0%.

Question: And the Activity [29]?
Answer: The Activity was “Active”.

Question: And the inhibition [30]?
Answer: The inhibition was 7%.

Question: What about the inhibition [31] of the same compound?
Answer: Its inhibition is 22%.

Question: And the Activity [32]?
Answer: The Activity was “Dose-Dependent Effect”.

Question: And the inhibition [33]?
Answer: The inhibition was “Tde”.

Question: And the Activity [34]?
Answer: The Activity was “Dose-Dependent Effect”.

Question: What about the inhibition [35] of the same compound?
Answer: The inhibition was -8%.

Question: And the inhibition [36]?
Answer: Its inhibition is “Tde”.

Question: What about the inhibition [37] of the same compound?
Answer: Its inhibition is “Tde”.

Question: And the inhibition [38]?
Answer: Its inhibition is 26%.

Question: And the Activity [39]?
Answer: Its Activity is “Dose-Dependent Effect”.
